Experimental data as given in PubChem BioAssay AID1845204 (Molecular Pharmacology Branch, DTP, NCI, 2023).

Tested on: HSSY-II tumor spheroid viability
Experiment: Anticancer human tumor HSSY-II cell line growth inhibition;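 note: spheroids exposed to compounds for seven days before reading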;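 for viability, T/C: percent of DMSO vehicle control viability so 100% = untreated level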
Settings: spheroids with HUVEC and MSC; for IC50: curve of first compound; for viability, T/C: stronger effect = lower value; active = viability on the fitted dose curve at most 10% of control; inactive = the rest
Summary of the method: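 Single agents and combinations were tested on spheroids built from tumor cells plus HUVEC and hMSC, at half-log dilutions starting at or near clinical Cmax, else 10 microM; final DMSO 0.25% (v/v).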

[1] = second compound 0.003 µM, first compound 0.0316 µM
[2] = second compound 0.003 µM, first compound 0.1 µM
[3] = second compound 0.003 µM, first compound 0.316 µM
[4] = second compound 0.003 µM, first compound 1 µM
[5] = second compound 0.003 µM, first compound 3.16 µM
[6] = second compound 0.003 µM, first compound 10 µM
[7] = second compound 0.00949 µM, first compound 0.0316 µM
[8] = second compound 0.00949 µM, first compound 0.1 µM
[9] = second compound 0.00949 µM, first compound 0.316 µM
[10] = second compound 0.00949 µM, first compound 1 µM
[11] = second compound 0.00949 µM, first compound 3.16 µM
[12] = second compound 0.00949 µM, first compound 10 µM
[13] = second compound 0.03 µM, first compound 0.0316 µM
[14] = second compound 0.03 µM, first compound 0.1 µM
[15] = second compound 0.03 µM, first compound 0.316 µM
[16] = second compound 0.03 µM, first compound 1 µM
[17] = second compound 0.03 µM, first compound 3.16 µM
[18] = second compound 0.03 µM, first compound 10 µM
[19] = second compound 0.0949 µM, first compound 0.0316 µM
[20] = second compound 0.0949 µM, first compound 0.1 µM
[21] = second compound 0.0949 µM, first compound 0.316 µM
[22] = second compound 0.0949 µM, first compound 1 µM
[23] = second compound 0.0949 µM, first compound 3.16 µM
[24] = second compound 0.0949 µM, first compound 10 µM
[25] = second compound 0.3 µM, first compound 0.0316 µM
[26] = second compound 0.3 µM, first compound 0.1 µM
[27] = second compound 0.3 µM, first compound 0.316 µM
[28] = second compound 0.3 µM, first compound 1 µM
[29] = second compound 0.3 µM, first compound 3.16 µM
[30] = second compound 0.3 µM, first compound 10 µM

COc1cc(C)[nH]c(=O)c1CN1CCc2c(Cl)cc(C(OC)C3COC3)c(Cl)c2C1=O (stereo not given) + CC[C@@]1(O)C(=O)OCc2c1cc1n(c2=O)Cc2cc3c(CN(C)C)c(O)ccc3nc2-1
> 10000 nM: IC50 (second compound 0.003 µM)
inactive: viability, T/C [1] 85.5% | viability, T/C [2] 83.2% | viability, T/C [3] 69.1% | viability, T/C [4] 63% | viability, T/C [5] 63.7% | viability, T/C [6] 56.1% | viability, T/C [7] 58.4% | viability, T/C [8] 59.4% | viability, T/C [9] 50.4% | viability, T/C [10] 46% | viability, T/C [11] 42.4% | viability, T/C [12] 42.8% | viability, T/C [13] 13.6% | viability, T/C [14] 10.9% | viability, T/C [15] 13.4% | viability, T/C [16] 13.3% | viability, T/C [17] 14.6% | viability, T/C [18] 15.1% | viability, T/C [19] 9.27% | viability, T/C [20] 10.6% | viability, T/C [21] 9.37% | viability, T/C [22] 11% | viability, T/C [23] 11.4% | viability, T/C [24] 13.1%
< 31.6 nM: IC50 (second compound 0.03 µM) | IC50 (second compound 0.0949 µM) | IC50 (second compound 0.3 µM)
active: viability, T/C [25] 6.06% | viability, T/C [26] 6.42% | viability, T/C [27] 6.42% | viability, T/C [28] 7.59% | viability, T/C [29] 8.41% | viability, T/C [30] 8.2%
438 nM: IC50 (second compound 0.00949 µM)

COc1ccc([C@@H](O)c2cc(-c3ncnc4cc(N5CCOCC5)ccc34)c(F)cc2Cl)nn1 + CC[C@@]1(O)C(=O)OCc2c1cc1n(c2=O)Cc2cc3c(CN(C)C)c(O)ccc3nc2-1
1380 nM: IC50 (second compound 0.003 µM)
active: viability, T/C [6] 8.32% | viability, T/C [12] 3.18% | viability, T/C [15] 10.3% | viability, T/C [16] 6.74% | viability, T/C [17] 2.41% | viability, T/C [18] 1.53% | viability, T/C [19] 9.13% | viability, T/C [20] 8.32% | viability, T/C [21] 7.14% | viability, T/C [22] 2.81% | viability, T/C [23] 1.55% | viability, T/C [24] 1.22% | viability, T/C [25] 6.23% | viability, T/C [26] 5.53% | viability, T/C [27] 4.4% | viability, T/C [28] 2.36% | viability, T/C [29] 1.09% | viability, T/C [30] 0.71%
902 nM: IC50 (second compound 0.00949 µM)
< 31.6 nM: IC50 (second compound 0.03 µM) | IC50 (second compound 0.0949 µM) | IC50 (second compound 0.3 µM)
inactive: viability, T/C [1] 88.8% | viability, T/C [2] 89.5% | viability, T/C [3] 74.8% | viability, T/C [4] 61.5% | viability, T/C [5] 26.5% | viability, T/C [7] 62.6% | viability, T/C [8] 65.5% | viability, T/C [9] 63.8% | viability, T/C [10] 48.6% | viability, T/C [11] 11.7% | viability, T/C [13] 10.3% | viability, T/C [14] 12.2%

[2H]c1nc(C)nc([2H])c1-c1cc(NC[C@@H](C)c2cccc3c(C(=O)NC)ccnc23)ncn1 + CC[C@@]1(O)C(=O)OCc2c1cc1n(c2=O)Cc2cc3c(CN(C)C)c(O)ccc3nc2-1
inactive: viability, T/C [1] 89.6% | viability, T/C [2] 93.9% | viability, T/C [3] 90.5% | viability, T/C [4] 96.5% | viability, T/C [5] 87.9% | viability, T/C [6] 78.7% | viability, T/C [7] 62% | viability, T/C [8] 64.5% | viability, T/C [9] 61.5% | viability, T/C [10] 63.9% | viability, T/C [11] 58% | viability, T/C [12] 53.9% | viability, T/C [13] 14.2% | viability, T/C [14] 13.6% | viability, T/C [15] 11.1% | viability, T/C [16] 13.1% | viability, T/C [17] 14% | viability, T/C [18] 16.3% | viability, T/C [19] 11% | viability, T/C [20] 11.4% | viability, T/C [21] 9.48% | viability, T/C [22] 10.8% | viability, T/C [23] 11.6% | viability, T/C [24] 12%
active: viability, T/C [25] 6.74% | viability, T/C [26] 7.54% | viability, T/C [27] 7.42% | viability, T/C [28] 6.87% | viability, T/C [29] 7.23% | viability, T/C [30] 8.83%
> 10000 nM: IC50 (second compound 0.003 µM) | IC50 (second compound 0.00949 µM)
< 31.6 nM: IC50 (second compound 0.03 µM) | IC50 (second compound 0.0949 µM) | IC50 (second compound 0.3 µM)
